The results in this text go back to paper PMC10145360, “Antiplatelet Aggregation Properties of Cirsilineol: A Novel Inhibitor of Blood Coagulation Factor Xa” (Pharmaceuticals, 2023).

Data set [1] concerns FX activation by FVIIa on HUVECs. Nature of the data set: Production of FXa on the surface of TNF-α-stimulated HUVECs. The class given is cell-based, human. Conditions: pre-incubation 10 min. On the procedure: (§1) Figure 5 Effects of CSL on the catalytic activity and production of FXa. […] Plots show the average values of five independent measurements. (B) HUVECs pre-incubated with the indicated concentrations of CSL for 10 min were stimulated with TNF-α (10 ng/mL) for 6 h and incubated with FX (175 nM) and FVIIa (10 nM) with/without anti-tissue factor antibody (25 µg/mL). The production of FXa was characterized as described in the Methods section. (C) PRP was preincubated for 5 min with different concentrations of CSL, Riva, or the vehicle. Platelet aggregation was initiated with FXa (52 µg/mL), and the platelet aggregation was recorded using an aggregometer. Data are shown as mean values ± SD of five independent experiments. * p < 0.05 vs. TNF-α alone (B) or FXa (C). D = 0.2% DMSO, used as the vehicle control.
Confluent HUVEC monolayers developed on 96-well culture plates that were stimulated with TNF-α (10 ng/mL) for 6 h after exposure to the relevant CSL concentration for 10 min. […] The reaction was stopped by adding buffer A supplemented with 10 mM EDTA, and the amount of FXa produced was determined by adding S-2765. Spectrophotometric monitoring of the absorbance over a 2 min period was performed at 405 nm. […]

Data set [2] concerns HUVECs. Description: MTT cell viability assay. The class given is cell-based, human. The settings on record: CSL 5–50 μM. On the procedure:
(§2) First, the potential cytotoxicity of […] on HUVECs was assessed using the 3-(4,5-dimethylthiazol-2-yl)-2,5-diphenyltetrazolium bromide (MTT) assay. […] The activated partial thromboplastin time (aPTT) and prothrombin time (PT), two coagulation parameters altered by CSL in vitro, were assessed first. We used the direct FXa inhibitor rivaroxaban as a positive control for our experiments. […] In the aPTT experiments, rivaroxaban at 8.38 μM and CSL at 7.23 μM, respectively, doubled the clotting time. Each mouse group (n = 5) received intravenous injections of CSL for 4 consecutive days to validate the in vitro results in an ex vivo experiment. […] In the ex vivo aPTT assays, treatment with CSL at 0.25 mg/kg and rivaroxaban at 0.29 mg/kg, respectively, doubled the clotting time. The average blood volume was determined to be 2 mL based on an estimated circulating blood volume for mice of 72 mL/kg and an average weight of 27 g for each animal used in this investigation. As a result, the estimated concentration of CSL in the peripheral blood after each injection ([…]) was 2.5, 5, 10, or 20 μM, respectively.
A 3-(4,5-dimethylthiazol-2-yl)-2,5-diphenyltetrazoliumbromide (MTT) assay was used to measure cell viability. […] The amount of formazan salt formed was measured spectrophotometrically at 540 nm.
On the technique in general: Formazan colour is commonly taken as a measure of viable cells.

Data set [3] has as its system human platelet-rich plasma (PRP). Description: In vitro agonist-induced platelet aggregation (aggregometer). The class given is cell-based. On the procedure: Figure 3 Effects of CSL on agonist-induced platelet aggregation. Platelet-rich plasma (PRP) was preincubated for 5 min with different concentrations of CSL, Riva, or the vehicle. […] Data are shown as mean values ± SD of five independent experiments. * p < 0.05 vs. D. D = 0.2% DMSO, used as the vehicle control.
Ten fasting healthy volunteers (aged 24–28; six women and four men) who were free of allergies, cardiovascular problems, carbohydrate, or lipid metabolic abnormalities and had not taken any morning medication had their blood samples taken. None of our subjects used addictive drugs or antioxidant food supplements, and their diets were well balanced. The plasma from the blood samples was immediately spun down (1300× g for 15 min) to separate it from sodium citrate (10.9 mM) and pooled for the following investigations. Next, human blood samples were spun down at room temperature to rapidly separate the PRP. The PRP concentration was adjusted to 1 × 10^9 platelets/mL using a hemocytometer. After being rinsed once in HEPES buffer containing 1 mM CaCl2, the PRP pellet was maintained at room temperature for an additional 30 min. Then, 10 mL of the platelet samples were utilized to measure each clotting time point. The IRB of Kyungpook National University Hospital (Daegu, Republic of Korea) approved this study protocol (KNUH 2012-01-010).
CSL dissolved in DMSO was incubated with human PRP for a specified time (1, 3, 5, or 10 min). […]

Data set [4] deals with PRP. Description: FXa-induced platelet aggregation. In kind it is cell-based, human. The settings on record: FXa 52 µg/mL; PRP preincubated 5 min. On the procedure:
as §1
CSL dissolved in DMSO was incubated with human PRP for a specified time (1, 3, 5, or 10 min). Next, PRP was activated by the addition of collagen (1 μg/mL), ADP (10 μM), U46619 (6 μM), or thrombin (3 U/mL), and the amount of platelet aggregation was measured using an aggregometer (Chronolog, Havertown, PA, USA).

For data set [5], the system named is platelet-poor plasma (PPP). Description: Prothrombin time (PT) after administration to mice. In kind it is in vivo, mouse. Conditions: administered to mice; data not shown. On the procedure: as §2
Plasma was taken by centrifuging blood (2000× g for 10 min) at room temperature following dimethyl sulfoxide (DMSO) or CSL administration for 1 h to assess PT and aPTT using a thrombotimer (Behnk Elektronik, Norderstedt, Germany). […] Next, the clotting time was measured.

Regarding `COc1cc(-c2cc(=O)c3c(O)c(OC)c(OC)cc3o2)ccc1O` [CSL, 4,5-dihydroxy-3,6,7-trimethoxyflavone], the “FX activation by FVIIa” value in data set [1] is given as “inhibited FX activation in a concentration-dependent manner”. Besides, the “cell viability (MTT)” value in data set [2] was “no change in cell viability”. Also, in data set [3] (ADP 10 μM), the “platelet aggregation induced by ADP” value was “significantly suppressed”. The “platelet aggregation induced by U46619” value in data set [3] (U46619 6 μM) is “significantly suppressed”. Besides, in data set [3] (collagen 1 μg/mL), the “platelet aggregation induced by collagen” value is listed as “significantly suppressed”. Further, in data set [4], the “platelet aggregation brought on by FXa” value was “dramatically reduced”. In addition, the PT result in data set [5] is on record as “did not change”.
